“Also recorded” adds a separate entry of the source.

For one assay, the system named is SREBP. The experiment in a line: SRE-driven luciferase reporter assay of SREBP activation. It counts as cell-based, Chinese hamster. The note with it: Cricetulus griseus; luciferase reporter in CHO-K1 cells, lipid-depleted medium, 20-24 h, normalized to β-galactosidase; averages of three independent experiments; read-out: IC50 (μM), inhibitory effect on the activation of SREBP. The method, then: The transfected cells were treated with DMSO alone, sterols (10 μg/mL cholesterol and 1.0 μg/mL 25-HC), or varied concentrations of 25(OH)D in a medium containing lipid-free serum. Luciferase activity was measured after 20 h incubation, and the data were normalized to β-galactosidase activity. Values are the mean±SD of three independent experiments.
The molecules in a chemical library which consists of 280 endogenous lipid related molecules were screened for their ability to inhibit the expression of a luciferase reporter gene. In this gene, three repeats of sterol regulatory elements (SREs) control expression of luciferase. Lipid depletion activates SREBPs, which bind to the SRE domain and work as transcription factors to express luciferase. The SREBP-responsive reporter construct was co-transfected into Chinese hamster ovary K1 (CHO-K1) cells, along with a control β-galactosidase (β-gal) reporter gene. A constitutively active actin promoter in the reporter gene drives the expression of β-gal. The levels of luciferase expression from the SREBP-responsive reporter gene were normalized to the levels of β-gal expression.
CHO-K1 cells were maintained in a medium A (1:1 mixture of Ham's F-12 medium and Dulbecco's modified Eagle medium, supplemented with 100 units/mL penicillin, 100 μg/mL streptomycin sulfate, and 5% (v/v) fetal bovine serum) at 37° C. under humidified 5% CO2.
On day 0, CHO-K1 cells were added to 96-well plates at 1.0×10^4 cells per well in medium A. On day 1, the cells were co-transfected with an SRE-1-driven luciferase reporter construct (pSRE-Luc) and pAc-β-gal at a 20/1 ratio, using FuGENE(Registered trademark) HD transfection reagent (Promega), according to the manufacturer's protocol. After 8-12 h of incubation, the cells were washed with PBS buffer, then incubated in medium B containing the specific test compounds. […] After 20-24 h of incubation, the cells in each well were lysed by freeze-thaw with Reporter Lysis Buffer (Promega), and aliquots were used to measure luciferase and β-galactosidase activities. Luciferase activity was measured using the Steady-Glo(Registered trademark) Luciferase Assay System (Promega), and β-galactosidase activity was measured using the β-galactosidase Enzyme Assay System (Promega). Luciferase activity was normalized to β-galactosidase activity.
In general terms: In a reporter assay the amount or activity of a reporter protein is the signal.
`C=C1/C(=C\C=C2/CCC[C@]3(C)[C@@H]([C@H](C)CCCC(C)(C)O)CC[C@@H]23)C[C@@H](O)C[C@@H]1NC(=O)c1ccc(Br)cc1` [Compound 39, 1α-NH(p-BrBz) VD3]: the IC50 came out at 0.97 µM.
With `C=C1/C(=C\C=C2/CCC[C@]3(C)[C@@H]([C@H](C)CCCC(C)(C)O)CC[C@@H]23)C[C@@H](O)C[C@@H]1NCC1CC1` [Compound 49, 1α-NH(Cyclopropylmethyl) VD3], the IC50 was 16 µM.
Take `Cc1ccc(S(=O)(=O)N[C@@H]2C/C(=C\C=C3/CCC[C@]4(C)[C@@H]([C@H](C)CCCC(C)(C)O)CC[C@@H]34)C[C@@H](O)C2)cc1` [Compound 85, 19-Nor 1α-NHTs-3β-OH VD3]: the IC50 came to 0.52 µM.
Take `C[C@H](CCCC(C)(C)O)[C@H]1CC[C@H]2/C(=C/C=C3/C[C@@H](O)C[C@H](NC(=O)C(F)(F)F)C3)CCC[C@]12C` [Compound 90, 19-Nor 1α-NH(Trifluoroacetyl)-3β-OH VD3]: the IC50 was 0.83 µM.
As for `C[C@H](CCCC(C)(C)O)[C@H]1CC[C@H]2/C(=C/C=C3/C[C@@H](O)C[C@H](F)C3)CCC[C@]12C` [Compound 98, 19-Nor 1α-F-3β-OH VD3], the IC50 amounted to 1.59 µM.
Same read-out and setting: the value for `C[C@H](CCCC(C)(C)O)[C@H]1CC[C@H]2/C(=C/C=C3/C[C@@H](O)C[C@H](NS(C)(=O)=O)C3)CCC[C@]12C` [Compound 89, 19-Nor 1α-NHMs-3β-OH VD3] was 3.34 µM; that for `C[C@H](CCCC(C)(C)O)[C@H]1CC[C@H]2/C(=C/C=C3/C[C@@H](O)C[C@H](N4C(=O)c5ccccc5C4=O)C3)CCC[C@]12C` [Compound 87, 19-Nor 1α-NPhth-3β-OH VD3] was 0.52 µM; that for `C[C@H](CCCC(C)(C)O)[C@H]1CC[C@H]2/C(=C/C=C3/C[C@@H](O)C[C@H](NC(=O)c4ccc(SC(F)(F)F)cc4)C3)CCC[C@]12C` [Compound 86, 19-Nor 1α-NH(p-SCF3Bz)-3β-OH VD3] was 0.53 µM.
`C[C@H](CCCC(C)(C)O)[C@H]1CC[C@H]2/C(=C/C=C3/C[C@@H](O)C[C@H](NS(=O)(=O)c4cccc5c(N(C)C)cccc45)C3)CCC[C@]12C` [Compound 91, 19-Nor 1α-NHDns-3β-OH VD3]: the IC50 was 1.17 µM.

The same assay, now with this note: luciferase reporter in CHO-K1 cells, lipid-depleted medium, 20-24 h, normalized to β-galactosidase; averages of three independent experiments; read-out: IC50 (μM), inhibitory effect on the activation of SREBP.
As for 1α-OH-3α-NHTs VD3 [Compound 73], the IC50 was 2.71 µM.
As for 19-Nor 1β-NHTs-3β-OH VD3 [Compound 72], the IC50 was found to be 1.69 µM.
On the same count and under the same terms, the same measure for 19-Nor 1β-NPhth-3β-OH VD3 [Compound 76]: 2.05 µM; for “19-Nor 1β-NH(p-SCF3Bz)-3β-OH VD3 [Compound 74]”: 1.11 µM; for 1α-NHNs VD3 [Compound 28]: 0.68 µM.
For the molecule `C=C1C(=CC=C2CCCC3(C)C2CCC3C(C)CCCC(C)C)CC(O)CC1NS(=O)(=O)c1ccc(C)cc1` (stereo not drawn) [Compound 32, 1α-NHTs VD3], the IC50 amounted to 0.61 µM.
Regarding `C=C1C(=CC=C2CCCC3(C)C2CCC3C(C)CCCC(C)C)CC(O)CC1NC(=O)OCc1ccccc1` (stereo not drawn) [Compound 36, 1α-NHCbz VD3], the IC50 was 1.38 µM.
For `C=C1C(=CC=C2CCCC3(C)C2CCC3C(C)CCCC(C)C)CC(O)CC1NC(=O)OC(C)(C)C` (stereo not drawn) [Compound 18a, 1α-NHBoc VD3], the IC50 came to 0.82 µM.
Consider `C=C1C(=CC=C2CCCC3(C)C2CCC3C(C)CCCC(C)C)CC(O)CC1NC(C)=O` (stereo not drawn) [Compound 22a, 1α-NHAc VD3], for which the IC50 came to 3.24 µM.
For the molecule 1α-OH-3α-NHPhth VD3 [Compound 77], the IC50 is 1.55 µM.
With `C=C1C(=CC=C2CCCC3(C)C2CCC3C(C)CCCC(C)C)CC(O)CC1NC(C)=O` (stereo not drawn) [Compound 22b, 1β-NHAc VD3], the half-maximal inhibitory concentration (IC50) amounted to 3.56 µM.
For the molecule 1α-NH(p-CF3Bz) VD3 [Compound 38], the IC50 is 1.76 µM.

A further assay deals with SREBP-2. The experiment in a line: Western-blot analysis of SREBP-2 in CHO-K1 cells. It counts as cell-based, Chinese hamster. The conditions noted are these: 5 μM, 16 h, CHO-K1 cells (FIG. 7, FIG. 8). Here is the method:
CHO-K1 cells were treated with DMSO alone or each molecule (5 μM) for 18 h. The levels of precursor and mature forms of SREBP-2 were analyzed by Western-blot. Western-blots of actin are shown in lower panel as a loading control.
CHO-K1 cells were treated with DMSO alone or each molecule (5 μM) for 16 h. The levels of precursor and mature forms of SREBP-2 were analyzed by Western-blot. Western-blots of actin are shown in lower panel as a loading control.
On day 0, CHO-K1 cells were added to 6-well plates at 3.0×10^5 cells per well in medium A. On day 1, the cells were washed with PBS, and then incubated in medium B in the absence or presence of specific test compounds (5 μM). After 16 h of incubation, the cells were washed three times with cold PBS, and lysed with a buffer A (50 mM Tris-HCl (pH 7.5), 150 mM NaCl, 1% (v/v) Nonidet P40, 0.5% (w/v) sodium deoxycholate, 8 M urea, and protease inhibitor cocktail (Nacalai)). The cell lysate were passed 16 times through a 25 G needle and centrifuged at 7,000 g at 4° C. for 10 min. The supernatants were transferred to new tubes, and the pellets were extracted with a buffer A. The resulting buffer was centrifuged at 7,000 g at 4° C. for 10 min, and the supernatants were combined to the previous ones. The resulting lysate was mixed with 0.20 volume of 6×SDS sample buffer (Nacalai) and incubated at room temperature for 30 min. The samples were separated on a 10% SDS-PAGE gel and blotted, using mouse monoclonal antibodies against SREBP-2 (IgG-7D4), SCAP (IgG-9D5), c-Myc (IgG1-MC045), and actin (AC-40). The specific bands were visualized using enhanced chemiluminescence (ECL Prime Western Blotting Detection Reagent, GE Healthcare) on an ImageQuant LAS 500 (GE Healthcare).
As for `C=C1/C(=C\C=C2/CCC[C@]3(C)[C@@H]([C@H](C)CCCC(C)(C)O)CC[C@@H]23)C[C@@H](O)C[C@@H]1NC(=O)c1ccc(Br)cc1` [Compound 39, 1α-NH(p-BrBz) VD3], the “levels of the mature form of SREBP versus DMSO” value (from here on “levels … of SREBP versus DMSO”) is “lower than that of DMSO”.
Regarding 1α-NHNs VD3 [Compound 28], the “levels … of SREBP versus DMSO” value was “lower than that of DMSO”.
As for `C=C1C(=CC=C2CCCC3(C)C2CCC3C(C)CCCC(C)C)CC(O)CC1NS(=O)(=O)c1ccc(C)cc1` (stereo not drawn) [Compound 32, 1α-NHTs VD3], the “levels … of SREBP versus DMSO” value is on record as “lower than that of DMSO”.
Turning to `C=C1C(=CC=C2CCCC3(C)C2CCC3C(C)CCCC(C)C)CC(O)CC1NC(=O)OCc1ccccc1` (stereo not drawn) [Compound 36, 1α-NHCbz VD3], the “levels … of SREBP versus DMSO” value is on record as “lower than that of DMSO”.
For the molecule `C=C1C(=CC=C2CCCC3(C)C2CCC3C(C)CCCC(C)C)CC(O)CC1NC(C)=O` (stereo not drawn) [Compound 22a, 1α-NHAc VD3], the “levels … of SREBP versus DMSO” value is given as “lower than that of DMSO”.
Same read-out and setting: the value for `C=C1C(=CC=C2CCCC3(C)C2CCC3C(C)CCCC(C)C)CC(O)CC1NC(C)=O` (stereo not drawn) [Compound 22b, 1β-NHAc VD3] was “lower than that of DMSO”.
1α-NH(p-CF3Bz) VD3 [Compound 38]: the “levels … of SREBP versus DMSO” value was “lower than that of DMSO”.

The same assay, now with this note: 5 μM, 18 h, CHO-K1 cells (FIG. 3).
As for `C[C@H](CCCC(C)(C)O)[C@H]1CC[C@H]2[C@@H]3CC=C4C[C@@H](O)CC[C@]4(C)[C@H]3CC[C@]12C` [Compound 25-HC, 25-hydroxycholesterol, reference compound], the “level of mature form of SREBP” value is listed as “disappeared” and the “level of precursor form of SREBP” value is given as “accumulated”.

The subject of a further assay is SREBP-2 fragment fused to PLAP (PLAP-BP2513-1141). Kind of assay: PLAP-BP assay (secreted alkaline phosphatase reporter of SREBP translocation and processing). It counts as cell-based, Chinese hamster. The conditions noted are these: VD derivatives 10 μM, 20 h, CHO-K1 co-transfected with PLAP-BP2 and SCAP; average of two experiments.
Regarding `C=C1/C(=C\C=C2/CCC[C@]3(C)[C@@H]([C@H](C)CCCC(C)(C)O)CC[C@@H]23)C[C@@H](O)C[C@@H]1O` [1,25(OH)2D, 1α,25-dihydroxyvitamin D3], the “secretion of PLAP” value is given as “inhibited the secretion of PLAP to a greater extent than sterol; also recorded: caused a greater decrease in PLAP secretion than did cholesterol”.

By IC50 is commonly meant the concentration at which inhibition is half-maximal.

For the origin of these results see US20180265463A1, “Vitamin D3 Derivatives and Pharmaceutical Use Thereof” (Kyoto University, priority 2014, published 2018).
